According to paper PMC7722354, “7-Substituted 2-Nitro-5,6-dihydroimidazo[2,1-b][1,3]oxazines: Novel Antitubercular Agents Lead to a New Preclinical Candidate for Visceral Leishmaniasis” (Journal of Medicinal Chemistry, 2017):
pIC50: −log10 of the molar value. Converted amounts (≈) assume the structure as drawn. Read-outs that look alike come from different tables or passages of the source. Marks after values point to notes of the source that are not given here.

Key:
[1] = set-up: method as in PMID 26901446; details: mice, cited from earlier work
L. donovani [2] = system: L. donovani; set-up: method as in PMID 26901446; details: cited from earlier work
M. tb, strain H37Rv [3] = experiment: LORA minimum inhibitory concentration assay (hypoxic); assay type: cell-based; details: Mycobacterium tuberculosis
Trypanosoma cruzi = experiment: T. cruzi growth inhibition on MRC-5 cells (LMPH); assay type: cell-based; details: MRC5
M. tb, strain H37Rv [4] = experiment: MABA minimum inhibitory concentration assay (aerobic); assay type: cell-based, Mycobacterium tuberculosis
[5] = system: human lung fibroblasts (MRC-5 cells); experiment: cytotoxicity toward MRC-5 cells (LMPH); assay type: cell-based; details: MRC5
Leishmania infantum = experiment: L. inf growth inhibition in mouse macrophages (LMPH); assay type: cell-based; details: Macrophage, mean of at least two determinations
Leishmania donovani = experiment: L. don amastigote mouse macrophage-based luciferase assay (CDRI); assay type: cell-based; details: in mouse macrophages, single test (CDRI)
[6] = kinetic aqueous solubility (Method A); assay type: physicochemical
L. donovani [7] = experiment: acute VL infection assay (L. don mouse model, LSHTM); details: Leishmania donovani, po, 120 h; 50 mg/kg orally once daily 5 days; liver parasite burden; read-out: in vivo efficacy against L. don (mouse), % inhibition
mouse pharmacokinetics = assay type: in vivo; details: mice, oral 40 mg/kg
L. donovani [8] = details: L. don hamster model, 50 mg/kg, 5 days oral dosing
Procedure: Groups of hamsters having an appropriate infection grading (5–15 amastigotes/100 spleen cell nuclei) were treated with test compounds, starting on day 17 and dosing orally once per day for 5 days, according to the usual procedure.[10] Post-treatment splenic biopsies taken 12 days after the first dose were employed to determine the intensity of infection, as previously reported.[10]

[9] = Mycobacterium tuberculosis, H37RV, aerobic, read-out: MIC MABA
[10] = Mycobacterium tuberculosis, H37RV, read-out: MIC MABA, aerobic
[11] = water, pH 7, kinetic, water (pH 7), 20 °C, read-out: aq solubility pH 7
[12] = 0.1 M HCl, pH 1, kinetic, 0.1 M HCl (pH 1), 20 °C, read-out: aq solubility pH 1

SMILES | MIC (M. tb, strain H37Rv [3]) | pIC50 (Trypanosoma cruzi) | MIC (M. tb, strain H37Rv [4]; [9]) | pIC50 [5] | pIC50 (Leishmania infantum) | pIC50 (Leishmania donovani) | other results
CC1(COc2ccc(OC(F)(F)F)cc2)Cn2cc([N+](=O)[O-])nc2O1 (racemic) [rac-4] | – | – | – | – | – | – | AUClast ([1]; intravenous 1 mg/kg): 1.69 μg·;h/mL; C0 ([1]; intravenous 1 mg/kg): 880 ng/mL; CL ([1]; intravenous 1 mg/kg): 9.5 mL/min/kg; Vdss ([1]; intravenous 1 mg/kg): 1.7 L/kg; t1/2 ([1]; intravenous 1 mg/kg): 2.2 h; AUClast ([1]; oral 25 mg/kg): 33.5 μ·h/mL; Cmax ([1]; oral 25 mg/kg): 4100 ng/mL; F (oral bioavailability) ([1]; oral 25 mg/kg): 79%; Tmax ([1]; oral 25 mg/kg): 4.0 h; % inhibition, L. don mouse model (L. donovani [2]; 6.25 mg/kg po daily for 5 d): 99%; ED50 (L. donovani [2]; L. don mouse model): 3.0 mg/kg
O=C(c1ccc(F)cc1)N1CCN(CC2CCn3cc([N+](=O)[O-])nc3O2)CC1 (stereo not shown) [compound 157] | > 128 µM | 4.96 | 46 µM (≈ 17.9 µg/mL) | < 4.19 | 4.35 | 5.32 | –
O=[N+]([O-])c1cn2c(n1)OC(COCc1ccc(-c3ccc(F)cc3)cc1)CC2 (stereo not shown) [compound 25, 7-{[(4′-Fluoro[1,1′-biphenyl]-4-yl)methoxy]methyl}-2-nitro-6,7-dihydro-5H-imidazo[2,1-b][1,3]oxazine] | 1.3 µM (≈ 0.498 µg/mL) | 6.28 | 0.08 µM (≈ 0.0307 µg/mL) | < 4.19 | 6.77 | 7.70 | –
O=[N+]([O-])c1cn2c(n1)OC(COc1cccc(-c3ccc(F)cc3F)n1)CC2 (stereo not shown) [compound 102] | > 128 µM | 6.64 | – | < 4.19 | 5.40 | 6.60 | MIC (M. tb, strain H37Rv [4]; [10]): > 128 µM
O=[N+]([O-])c1cn2c(n1)OC(COc1ccc(-c3ccc(F)nc3)cc1)CC2 (stereo not shown) [compound 55, 7-{[4-(6-Fluoropyridin-3-yl)phenoxy]methyl}-2-nitro-6,7-dihydro-5H-imidazo[2,1-b][1,3]oxazine] | 3.5 µM (≈ 1.3 µg/mL) | 7.57 | 0.24 µM (≈ 0.0889 µg/mL) | < 4.19 | 7.08 | < 5.00 | solubility at 15 min [6, 11]: 0.36 µg/mL (≈ 0.972 µM)
O=[N+]([O-])c1cn2c(n1)OC(COc1cnc(-c3ccc(F)cc3)nc1)CC2 (stereo not shown) [compound 139] | 20 µM (≈ 7.43 µg/mL) | 6.59 | 0.27 µM (≈ 0.1 µg/mL) | 4.21 | 6.68 | 7.15 | solubility at 15 min [6, 11]: 0.59 µg/mL (≈ 1.59 µM)
CC1(COc2ccc(-c3ccc(F)cc3)cc2)CCn2cc([N+](=O)[O-])nc2O1 (stereo not shown) [compound 52] | 1.4 µM (≈ 0.537 µg/mL) | 6.46 | 0.085 µM (≈ 0.0326 µg/mL) | < 4.19 | 6.47 | 6.70 | –
O=[N+]([O-])c1cn2c(n1)OC(COCc1ccc(-c3ccc(OC(F)(F)F)cc3)cc1)CC2 (stereo not shown) [compound 28] | 1.5 µM (≈ 0.674 µg/mL) | 5.68 | 0.055 µM (≈ 0.0247 µg/mL) | < 4.19 | 6.40 | 6.72 | solubility at 15 min ([6]; water, pH 7, kinetic, pH 7, read-out: solubility at pH 7): ~0.058 µg/mL (≈ 0.129 µM); solubility at 15 min [6, 11]: 0.058 µg/mL (≈ 0.129 µM); inhibition in vivo at 50 mg/kg (L. donovani [7]): 49%; AUCinf (extrapolated) (mouse pharmacokinetics): 47.1^e μ·h/mL; Cmax (mouse pharmacokinetics): 3300 ng/mL; Tmax (mouse pharmacokinetics): 8.0 h; t1/2 (mouse pharmacokinetics): 5.2 h
O=[N+]([O-])c1cn2c(n1)OC(COc1ccc(-c3ccc(F)nc3F)nc1)CC2 (stereo not shown) [compound 114] | 41 µM (≈ 16 µg/mL) | 6.46 | 1.2 µM (≈ 0.467 µg/mL) | < 4.19 | 4.28 | 7.10 | –
O=[N+]([O-])c1cn2c(n1)OC(COc1ccc(-c3ccc(F)cc3)cc1)CC2 (stereo not shown) [compound 49] | > 128 µM | – | – | – | – | 8.00 | % inhibition of parasite infection in the spleen (L. donovani [8]): 51%; MIC (M. tb, strain H37Rv [4]; [10]): 0.18 µM (≈ 0.0665 µg/mL)
O=[N+]([O-])c1cn2c(n1)OC(COc1cccc(-c3ccc(F)cc3)n1)CC2 (stereo not shown) [compound 99] | 3 µM (≈ 1.11 µg/mL) | 6.80 | 1.7 µM (≈ 0.63 µg/mL) | 4.23 | 6.85 | 6.51 | solubility at 15 min [6, 12]: 0.56 µg/mL (≈ 1.51 µM); solubility at 15 min [6, 11]: 0.027 µg/mL (≈ 0.0729 µM)
CC1(COc2ncc(-c3ccc(F)cc3)cn2)CCn2cc([N+](=O)[O-])nc2O1 (stereo not shown) [compound 131] | 6.3 µM (≈ 2.43 µg/mL) | 6.37 | 0.44 µM (≈ 0.17 µg/mL) | 4.24 | 6.54 | 6.49 | –
CC1(COc2ncc(-c3ccc(F)nc3)cn2)CCn2cc([N+](=O)[O-])nc2O1 (stereo not shown) [compound 133] | 54 µM (≈ 20.9 µg/mL) | 5.54 | 23 µM (≈ 8.89 µg/mL) | < 4.19 | 5.21 | 5.89 | –
O=[N+]([O-])c1cn2c(n1)OC(COc1ccc(-c3ccc(F)cc3F)cn1)CC2 (stereo not shown) [compound 62] | 2.4 µM (≈ 0.932 µg/mL) | 7.52 | 0.1 µM (≈ 0.0388 µg/mL) | < 4.19 | 7.43 | 7.15 | solubility at 15 min [6, 12]: 1.5 µg/mL (≈ 3.86 µM); solubility at 15 min [6, 11]: 0.13 µg/mL (≈ 0.335 µM)
O=[N+]([O-])c1cn2c(n1)OC(COc1ncc(-c3ccc(F)cc3)cn1)CC2 (stereo not shown) [compound 129] | 1.7 µM (≈ 0.631 µg/mL) | 6.77 | 0.02 to 0.04 µM (≈ 0.00743 to 0.0149 µg/mL) | < 4.19 | 6.54 | 7.00 | MIC (M. tb, strain H37Rv [4]; aerobic, read-out: MIC MABA): 0.04 µM (≈ 0.0149 µg/mL); solubility at 15 min [6, 11]: 1.8 µg/mL (≈ 4.85 µM); inhibition in vivo at 50 mg/kg (L. donovani [7]): 85%
O=[N+]([O-])c1cn2c(n1)OC(COc1ccc(-c3ccc(F)nc3F)cn1)CC2 (stereo not shown) [compound 109] | 4.2 µM (≈ 1.64 µg/mL) | 6.54 | 0.25 µM (≈ 0.0973 µg/mL) | < 4.19 | 6.72 | < 5.00 | –
CC1(COCc2ccc(-c3ccc(F)cc3)cc2)CCn2cc([N+](=O)[O-])nc2O1 (stereo not shown) [compound 27] | 0.61 µM (≈ 0.242 µg/mL) | 6.08 | 0.085 µM (≈ 0.0338 µg/mL) | < 4.19 | 5.74 | 6.66 | –
O=C(OCC1CCn2cc([N+](=O)[O-])nc2O1)N1CCN(c2ccc(F)cc2)CC1 (stereo not shown) [compound 160, (2-Nitro-6,7-dihydro-5H-imidazo[2,1-b][1,3]oxazin-7-yl)methyl 4-(4-fluorophenyl)-piperazine-1-carboxylate] | 22 µM (≈ 8.92 µg/mL) | 5.82 | 2.5 µM (≈ 1.01 µg/mL) | < 4.19 | < 4.19 | < 4.00 | –
CC1(COCc2ccc(OC(F)(F)F)cc2)CCn2cc([N+](=O)[O-])nc2O1 (stereo not shown) [compound 21] | 3.3 µM (≈ 1.28 µg/mL) | 6.12 | 0.55 µM (≈ 0.213 µg/mL) | < 4.19 | 6.52 | 6.51 | –
CC1(CN2CCN(c3ccc(F)cc3)CC2)CCn2cc([N+](=O)[O-])nc2O1 (stereo not shown) [compound 144] | 6.8 µM (≈ 2.55 µg/mL) | 5.89 | 0.34 µM (≈ 0.128 µg/mL) | < 4.19 | 6.14 | 6.15 | –
CC1(CN2CCN(C(=O)c3ccc(F)cc3)CC2)CCn2cc([N+](=O)[O-])nc2O1 (stereo not shown) [compound 159] | > 128 µM | 5.55 | 93 µM (≈ 37.5 µg/mL) | < 4.19 | 5.19 | 5.55 | –
